Measured values as given in ChEMBL document CHEMBL1255319, “Predictive values of the human immunodeficiency virus phenotype and genotype and of amprenavir and lopinavir inhibitory quotients in heavily pretreated patients on a ritonavir-boosted dual-protease-inhibitor regimen” (Antimicrob Agents Chemother, 2008).
In brackets after ≈: the same amount, converted by molar mass.

Legend:
[1] = tested on: Human immunodeficiency virus; assay: Antiviral activity in HIV infected in patient having Cmin-corrected GIQ value > 75 assessed as viral copies; assay type: functional
[2] = tested on: Human immunodeficiency virus 1; assay: Antiviral activity against HIV1 infected in human; assay type: functional
Homo sapiens = species on record: Homo sapiens; assay: fCmin in HIV1-infected patient at 600 mg, BID measured on week 2 by HPLC; conditions: in vivo
[3] = Inhibitory quotient, ratio of fCmin to IC90 for HIV1 infected in patient at 600 mg, BID
[4] = Inhibitory quotient, ratio of Cmin to IC90 for HIV1 infected in patient in presence of human serum at 600 mg, BID
[5] = tested on: Human immunodeficiency virus; assay: Antiviral activity in HIV infected in patient having Cmin-corrected GIQ value < 75 assessed as viral copies; assay type: functional
[6] = tested on: Human immunodeficiency virus 1; assay: Antiviral activity against HIV1 infected in human in presence of human serum; assay type: functional

CC(C)CN(C[C@@H](O)[C@H](Cc1ccccc1)NC(=O)O[C@H]1CCOC1)S(=O)(=O)c1ccc(N)cc1 [AMPRENAVIR]
log10cfu [1]: 1.23 log10 copies/ml | IC90 [2]: 0.0578 µg/mL (≈ 0.114 µM) | fCmin (Homo sapiens): 177 ng/mL | Ratio [3]: 2.5 | Ratio [4]: 3.6 | log10cfu [5]: 0.19 log10 copies/ml | IC90 [6]: 0.453 µg/mL
